How the values were obtained:
[1] = molecular target: T1, recombinant human proteasome β1 subunit (Homo sapiens, UniProt P28072); experiment: Enzyme activity of recombinant proteasome catalytic β1 subunit (Z-LLE-AMC); type: biochemical; conditions: 50 μM Z-LLE-AMC, 2 h incubation
T1 construct: His-Tag; made in house; host or cells: Escherichia coli
T1 sequence (P28072 1-239): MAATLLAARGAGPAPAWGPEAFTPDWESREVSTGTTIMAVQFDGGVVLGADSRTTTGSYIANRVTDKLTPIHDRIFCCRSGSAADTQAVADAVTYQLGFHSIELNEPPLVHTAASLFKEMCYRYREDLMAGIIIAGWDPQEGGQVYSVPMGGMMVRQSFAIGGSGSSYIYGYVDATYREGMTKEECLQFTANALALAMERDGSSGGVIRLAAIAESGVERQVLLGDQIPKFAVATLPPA
Description: Briefly, catalytic activity of the recombinant human proteasome β1 subunit was assayed by adding recombinant β1 subunit protein (30 μg) to 100 μL of proteasome activity assay buffer (10 mM Tris-HCL, pH 7.8, 5 mM adenosine triphosphate, 0.5 mM dithiothreitol and 5 mM MgCL2•6H2O) containing 50 μM Z-LLE-AMC in the presence of fangchinoline or tetrandrine at different concentrations or not. The hydrolase activity of the proteasome catalytic β1 subunit could release the fluorogenic AMC component from substrate Z-LLE-AMC and the AMC release was measured after 2 h incubation using a Microplate Reader Bio-Rad 550 with excitation and emission wavelengths of 360 and 465 nm, respectively.

[2] = system: T2, cellular proteasome of LnCap cells; experiment: Cellular proteasome activities of LnCap cells; type: cell-based, human; conditions: 24 h
T2 construct: endogenous in cells; host or cells: LnCap cells, whole cell extract
Description: Cells were treated with either solvent control (0.1% DMSO), fangchinoline at different concentrations, or 1 μM carfilzomib (positive control) for 24 h at 37 °C. The enzymatic activities of cellular proteasome in cell lysate were measured as reported in our previous paper. Briefly, cells were harvested, washed with PBS and then lysed in proteasome activity assay buffer for 30 min at 4°C. The homogenate was then centrifuged at 12000 × g for 30 min at 4°C. The supernatant was collected as whole cell extract and the protein content in the supernatant was measured with the Bradford reagent. Catalytic activities of cellular proteasome were assayed by adding whole cell extract (containing 30 μg protein) to 100 μL of proteasome activity assay buffer containing 50 μM fluorogenic peptide substrates such as Z-LLE-AMC for detecting C-L activity, Z-ARR-AMC for detecting T-L activity or Suc-LLVY-AMC for detecting CT-L activity, respectively. The release of fluorogenic AMC from the peptide substrates was then measured as described above.

[3] = system: PC-3 cells; experiment: Flow cytometric analysis of cell cycle in PC-3 cells; type: cell-based, human; conditions: 24 h
Description: The induction of cell cycle arrest and apoptosis by fangchinoline in PC-3 cells was observed by using flow cytometric analysis as described in our previous reports. Briefly, for flow cytometry analysis of cell cycle, cells were collected after treatment, washed with PBS and then fixed with 70% ethanol at 4°C for overnight. After PBS washes, cells were re-suspended in staining buffer (10 mg/mL RNase A and […] propidium iodide in cold PBS) for 30 min in dark at room temperature and then analyzed using FACSCalibur Flow Cytometer. For flow cytometric analysis of apoptosis, Alexa Fluor 488 Annexin V & PI /Dead cell Apoptosis Kit (Invitrogen) was used. Cells were collected after treatment, washed with PBS and then resuspended in binding buffer and then incubated with Annexin V-FITC and propidium iodide for 15 min in dark at room temperature. Then, flow cytometric analysis was conducted and data analysis was performed with CellQuest software.

[4] = system: caspase-3, PARP, LC-3B in PC-3 cells; experiment: Western blotting of apoptosis and autophagy markers in PSMB6 knockdown PC-3 cells; type: cell-based, human; conditions: 40 μM, 24 h
Description: Western blotting assay was conducted as described before. Briefly, an aliquot of protein (100 μg) sample was loaded onto a 12% SDS gel, separated electrophoretically, and transferred to a Nitrocellulose membrane (Bio-Rad). After the membrane was incubated with 10 mM TBS with […] and 5% dehydrated skim milk to block nonspecific protein binding, the membrane was incubated with primary antibodies overnight at 4°C. The primary antibodies (all from Cell Signaling Technology) used were rabbit polyclonal antibody against human IκB-α (#4812, 1:400), Bax (#2772, 1:400), proteasome β1 subunit (PSMB6) (#13267, 1:500), β-actin (#4967, 1:400) and mouse monoclonal antibody against human p27 Kip1 (#3688, 1:400) or ubiquitin (#3936, 1:1000). After TBS washes, blots were then incubated with secondary antibody for 2 h at room temperature at a 1:1000 dilution and then visualized using chemiluminescence (Pierce Biotechnology, Rockford, IL, USA). The secondary antibodies used were HRP-linked goat anti-rabbit IgG (#7074) and HRP-linked horse anti-mouse IgG (#7076), both from Cell Signaling Technology.
Validated siRNAs for PSMB6 (Sigma-Aldrich) were transfected into PC-3 cells by using Lipofectamine RNAiMAX (Invitrogen) according to the manufacturer’s protocol. Scrambled negative control siRNAs (Sigma-Aldrich) were used as negative control. […]

SMILES: COc1ccc2cc1Oc1ccc(cc1)C[C@H]1c3cc(c(OC)cc3CCN1C)Oc1c(O)c(OC)cc3c1[C@H](C2)N(C)CC3 [fangchinoline]
- Inhibition of enzyme activity of recombinant proteasome β1 subunit [1]: dose-dependently inhibited
- Effect on CT-L activity of cellular proteasome [2]: did not affect
- Effect on T-L activity of cellular proteasome [2]: did not affect
- Inhibition of C-L activity of cellular proteasome [2]: significantly inhibit
- Percentage (%) of cells in G0/G1 phase ([3]; 5 μM): 60.17±1.49%
- Percentage (%) of cells in G2/M phase ([3]; 5 μM): 11.21±2.45 %
- Percentage (%) of cells in S phase ([3]; 5 μM): 28.62±2.31%
- Percentage (%) of cells in G0/G1 phase ([3]; 8 μM): 64.25±1.57 %
- Percentage (%) of cells in G2/M phase ([3]; 8 μM): 11.99±2.23 %
- Percentage (%) of cells in S phase ([3]; 8 μM): 23.76±2.77%
- Percentage (%) of cells in G0/G1 phase ([3]; 12 μM): 63.03±0.73 %
- Percentage (%) of cells in G2/M phase ([3]; 12 μM): 11.59±1.99 %
- Percentage (%) of cells in S phase ([3]; 12 μM): 25.37±1.75 %
- Percentage (%) of cells in G0/G1 phase ([3]; 18 μM): 67.63±3.34 %
- Percentage (%) of cells in G2/M phase ([3]; 18 μM): 8.88±2.91%
- Percentage (%) of cells in S phase ([3]; 18 μM): 23.48±2.14 %
- Percentage (%) of cells in G0/G1 phase ([3]; 27 μM): 75.16±1.95 %
- Percentage (%) of cells in G2/M phase ([3]; 27 μM): 8.65±1.81%
- Percentage (%) of cells in S phase ([3]; 27 μM): 16.19±0.63 %
- Percentage (%) of cells in G0/G1 phase ([3]; 40 μM): 80.14±1.55 %
- Percentage (%) of cells in G2/M phase ([3]; 40 μM): 7.99±1.43%
- Percentage (%) of cells in S phase ([3]; 40 μM): 11.88±0.56 %
- Effect of knockdown of proteasome β1 subunit on markers of apoptosis (caspase-3, PARP) and autophagy (LC-3B) [4]: ameliorated fangchinoline-induced apoptosis and autophagy

Reference: paper PMC4626104, “Inhibition on Proteasome β1 Subunit Might Contribute to the Anti-Cancer Effects of Fangchinoline in Human Prostate Cancer Cells” (PLoS ONE, 2015)
